{
  "source": "ChEMBL document CHEMBL4265876",
  "about": "“Natural Products with Heteroatom-Rich Ring Systems” (J Nat Prod, 2017)",
  "key": {"Micrococcus luteus": {"tested_on": "Micrococcus luteus", "test": "Antibacterial activity against Micrococcus luteus assessed as inhibition zone at 20 ug", "type": "functional", "details": "read-out: IZ"}, "L1210 [1]": {"tested_on": "L1210", "test": "Cytotoxicity against mouse L1210 cells assessed as decrease in cell viability at 5 ug", "type": "functional"}, "T-cell": {"tested_on": "T-cell", "test": "Inhibition of ConA-induced cell proliferation of BALB/c mouse T-lymphocytes assessed as reduction in [3H]thymidine incorporation incubated for 48 hrs by beta scintillation counting method", "type": "functional"}, "Human alphaherpesvirus 1": {"tested_on": "Human alphaherpesvirus 1", "test": "Antiviral activity against HSV1", "type": "functional, organism-based"}, "K562": {"tested_on": "K562", "test": "Cytotoxicity against human K562 cells assessed as decrease in cell viability after 48 hrs by MTT assay", "type": "functional, cell-based", "details": "K562, 48 h"}, "A549": {"tested_on": "A549", "test": "Cytotoxicity against human A549 cells assessed as decrease in cell viability after 48 hrs by MTT assay", "type": "functional, cell-based", "details": "A549, 48 h"}, "[2]": {"test": "Inhibition of protein kinase A (unknown origin)", "parameters": "species or system Homo sapiens"}, "Influenza A virus": {"tested_on": "Influenza A virus", "test": "Antiviral activity against Influenza A virus (A/Hanfang/359/95(H3N2))", "type": "functional, organism-based"}, "[3]": {"target": "Sodium-dependent noradrenaline transporter (Homo sapiens) (UniProt P23975)", "sequence (P23975 whole entry)": "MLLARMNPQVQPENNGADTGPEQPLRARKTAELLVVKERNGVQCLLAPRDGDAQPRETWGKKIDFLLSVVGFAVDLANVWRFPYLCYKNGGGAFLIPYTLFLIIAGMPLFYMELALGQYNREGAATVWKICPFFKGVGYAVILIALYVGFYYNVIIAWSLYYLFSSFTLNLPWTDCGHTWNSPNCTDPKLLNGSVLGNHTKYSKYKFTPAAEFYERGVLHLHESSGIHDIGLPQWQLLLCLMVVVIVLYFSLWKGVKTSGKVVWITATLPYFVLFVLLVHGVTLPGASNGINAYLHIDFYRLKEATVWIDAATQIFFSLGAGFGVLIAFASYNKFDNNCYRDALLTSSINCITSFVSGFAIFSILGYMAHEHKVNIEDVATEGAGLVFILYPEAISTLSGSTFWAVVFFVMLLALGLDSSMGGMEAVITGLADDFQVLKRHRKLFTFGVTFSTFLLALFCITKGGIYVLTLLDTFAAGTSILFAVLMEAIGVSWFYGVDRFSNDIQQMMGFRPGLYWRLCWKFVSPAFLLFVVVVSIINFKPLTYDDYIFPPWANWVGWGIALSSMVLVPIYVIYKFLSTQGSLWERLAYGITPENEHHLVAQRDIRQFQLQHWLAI", "test": "Inhibition of norepinephrine transporter (unknown origin) at 10 uM"}, "[4]": {"target": "Mu-type opioid receptor (Homo sapiens) (UniProt P35372)", "sequence (P35372 whole entry)": "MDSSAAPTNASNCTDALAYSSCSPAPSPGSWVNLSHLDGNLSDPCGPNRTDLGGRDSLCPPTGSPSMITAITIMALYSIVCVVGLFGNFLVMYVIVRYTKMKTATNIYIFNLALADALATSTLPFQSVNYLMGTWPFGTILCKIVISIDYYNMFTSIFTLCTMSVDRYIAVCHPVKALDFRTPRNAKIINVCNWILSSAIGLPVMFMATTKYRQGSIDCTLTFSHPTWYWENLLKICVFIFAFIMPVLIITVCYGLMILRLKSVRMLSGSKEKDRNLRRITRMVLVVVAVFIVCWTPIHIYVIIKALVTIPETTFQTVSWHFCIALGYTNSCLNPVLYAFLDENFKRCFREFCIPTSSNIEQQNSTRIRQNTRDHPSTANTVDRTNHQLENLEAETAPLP", "test": "Inhibition of mu opioid receptor (unknown origin) at 10 uM"}, "[5]": {"target": "C-X-C chemokine receptor type 4 (Rattus norvegicus) (UniProt O08565)", "sequence (O08565 whole entry)": "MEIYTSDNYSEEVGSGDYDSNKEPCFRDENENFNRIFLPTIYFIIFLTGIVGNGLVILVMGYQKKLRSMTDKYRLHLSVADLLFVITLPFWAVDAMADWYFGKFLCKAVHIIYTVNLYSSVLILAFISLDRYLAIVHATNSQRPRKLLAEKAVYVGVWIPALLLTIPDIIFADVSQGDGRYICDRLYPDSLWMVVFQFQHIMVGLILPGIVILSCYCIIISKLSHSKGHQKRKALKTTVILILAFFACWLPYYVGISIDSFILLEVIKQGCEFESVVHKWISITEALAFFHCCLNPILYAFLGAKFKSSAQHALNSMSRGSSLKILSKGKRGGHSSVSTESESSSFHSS", "test": "Antagonist activity at CXCR4 in rat GH4C1 cells assessed as inhibition of CXCL12-induced cell migration at 0.1 uM after 72 hrs by BrdU incorporation assay", "type": "functional, cell-based"}, "[6]": {"target": "C-X-C chemokine receptor type 4 (Rattus norvegicus) (UniProt O08565)", "test": "Antagonist activity at CXCR4 in rat GH4C1 cells assessed as inhibition of CXCL12-induced DNA synthesis at 10 uM after 72 hrs by BrdU incorporation assay", "type": "functional, cell-based"}, "C6": {"tested_on": "C6", "test": "Cytotoxicity against rat C6 cells assessed as decrease in cell viability", "type": "functional, cell-based"}, "HeLa": {"tested_on": "HeLa", "test": "Cytotoxicity against human HeLa cells assessed as decrease in cell viability", "type": "functional, cell-based"}, "[7]": {"target": "Sodium-dependent serotonin transporter (Homo sapiens) (UniProt P31645)", "sequence (P31645 whole entry, looked up)": "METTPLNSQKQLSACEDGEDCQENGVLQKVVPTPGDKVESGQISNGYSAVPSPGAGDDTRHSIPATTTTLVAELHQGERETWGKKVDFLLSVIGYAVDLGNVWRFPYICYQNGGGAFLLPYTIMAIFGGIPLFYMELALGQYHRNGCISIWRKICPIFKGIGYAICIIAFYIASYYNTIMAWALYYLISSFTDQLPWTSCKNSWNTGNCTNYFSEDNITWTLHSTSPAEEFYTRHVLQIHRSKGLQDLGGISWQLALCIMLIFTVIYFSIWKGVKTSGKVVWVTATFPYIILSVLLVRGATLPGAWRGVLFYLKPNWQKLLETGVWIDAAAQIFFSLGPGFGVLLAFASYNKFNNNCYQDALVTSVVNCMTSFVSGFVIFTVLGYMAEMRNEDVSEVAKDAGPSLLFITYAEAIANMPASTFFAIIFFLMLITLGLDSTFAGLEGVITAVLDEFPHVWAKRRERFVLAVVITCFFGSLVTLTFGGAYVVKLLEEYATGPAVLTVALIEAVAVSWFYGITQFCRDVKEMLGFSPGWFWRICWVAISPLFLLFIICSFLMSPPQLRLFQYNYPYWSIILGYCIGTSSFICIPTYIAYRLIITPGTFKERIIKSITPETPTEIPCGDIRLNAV", "test": "Inhibition of serotonin transporter (unknown origin) at 10 uM"}, "3T3-L1": {"tested_on": "3T3-L1", "test": "Cytotoxicity against mouse 3T3L1 cells assessed as decrease in cell viability", "type": "cell-based"}, "[8]": {"target": "Sodium-dependent dopamine transporter (Homo sapiens) (UniProt Q01959)", "sequence (Q01959 whole entry)": "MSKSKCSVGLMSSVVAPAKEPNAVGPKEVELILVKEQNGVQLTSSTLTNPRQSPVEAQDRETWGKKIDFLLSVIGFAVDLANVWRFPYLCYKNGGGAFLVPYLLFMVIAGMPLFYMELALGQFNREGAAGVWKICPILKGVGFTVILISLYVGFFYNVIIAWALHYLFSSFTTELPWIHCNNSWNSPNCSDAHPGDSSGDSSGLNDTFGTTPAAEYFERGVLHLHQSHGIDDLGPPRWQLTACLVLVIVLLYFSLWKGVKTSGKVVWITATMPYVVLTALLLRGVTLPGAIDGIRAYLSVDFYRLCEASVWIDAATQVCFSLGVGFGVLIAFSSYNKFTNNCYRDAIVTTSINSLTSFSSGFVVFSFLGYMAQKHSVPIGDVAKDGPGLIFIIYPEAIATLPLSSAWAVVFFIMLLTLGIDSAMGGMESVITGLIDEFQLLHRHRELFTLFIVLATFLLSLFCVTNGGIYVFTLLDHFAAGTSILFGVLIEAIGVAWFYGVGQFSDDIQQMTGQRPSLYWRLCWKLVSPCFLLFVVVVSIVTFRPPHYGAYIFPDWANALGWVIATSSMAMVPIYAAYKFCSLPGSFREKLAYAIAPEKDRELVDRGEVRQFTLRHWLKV", "test": "Inhibition of dopamine transporter (unknown origin) at 10 uM"}, "Mucor hiemalis": {"tested_on": "Mucor hiemalis", "test": "Antifungal activity against Mucor hiemalis assessed as inhibition zone at 50 ug/disk", "type": "functional", "details": "read-out: IZ"}, "Ruegeria atlantica": {"tested_on": "Ruegeria atlantica", "test": "[…] activity against Ruegeria atlantica assessed as inhibition zone at 50 ug/disk", "type": "functional", "details": "read-out: IZ"}, "Saccharomyces cerevisiae": {"tested_on": "Saccharomyces cerevisiae", "test": "Antifungal activity against Saccharomyces cerevisiae assessed as inhibition zone at 50 ug/disk", "type": "functional", "details": "read-out: IZ"}, "Staphylococcus aureus": {"tested_on": "Staphylococcus aureus", "test": "Antibacterial activity against Staphylococcus aureus assessed as inhibition zone at 50 ug/disk", "type": "functional", "details": "read-out: IZ"}, "V79": {"tested_on": "V79", "test": "Cytotoxicity against chinese hamster V79 cells", "type": "cell-based", "details": "Cricetulus griseus"}, "Escherichia coli": {"tested_on": "Escherichia coli", "test": "Antibacterial activity against Escherichia coli assessed as inhibition zone at 50 ug/disk", "type": "functional", "details": "read-out: IZ"}, "L1210 [9]": {"tested_on": "L1210", "test": "Cytotoxicity against mouse L1210 cells", "type": "functional, cell-based"}, "HGC-27": {"tested_on": "HGC-27", "test": "Growth inhibition of human HGC27 cells after 48 hrs by MTT assay", "type": "functional, cell-based", "details": "HGC-27, 48 h"}, "[10]": {"test": "Antioxidant activity of the compound", "type": "functional"}, "L5178Y": {"tested_on": "L5178Y", "test": "Cytotoxicity against mouse L5178Y cells by MTT assay", "type": "functional, cell-based"}},
  "data": [
    {"smiles": "N[C@@H]1CSCON2CCc3c([nH]c4ccc(O)c(Br)c34)[C@H]12", "note": "[EUDISTOMIN E]", "values": [
      {"measurement": "zone of inhibition at 20 µg/disc", "setting": "Micrococcus luteus", "value": 46, "unit": "mm"},
      {"measurement": "Activity", "setting": "L1210 [1]", "value": 100, "unit": "%"}
    ]},
    {"smiles": "COC1=C[C@@H](C)O[C@@H](O[C@H]2CC[C@@]3(C)C(=CC[C@@H]4[C@@H]3CC[C@@]3(C)[C@H]4CC[C@]3(O)[C@H](C)O[C@H]3C[C@H]4OCO[C@@]5(C[C@@H](OC)[C@H](O[C@H]6C[C@H](O)[C@H](O[C@H]7C[C@@H](O)[C@H](O[C@H]8C[C@H](OC)[C@H](O[C@@H]9O[C@H](C)[C@H](O)[C@H](OC)[C@H]9OC(C)=O)[C@@H](C)O8)[C@@H](C)O7)[C@@H](C)O6)[C@@H](C)O5)O[C@@H]4[C@@H](C)O3)C2)C1=O", "values": [
      {"measurement": "IC50", "setting": "T-cell", "value": "290 to 1970", "unit": "nM"}
    ]},
    {"smiles": "C=C[C@H](O)Cc1nsc(C2=CCCS[C@@]23C(=O)Nc2ccccc23)n1", "values": [
      {"measurement": "IC50", "setting": "Human alphaherpesvirus 1", "value": 25900, "unit": "nM"}
    ]},
    {"smiles": "CC1=C(c2ccccc2)N(C)NC(=O)N1", "values": [
      {"measurement": "IC50", "setting": "K562", "value": 66900, "unit": "nM"},
      {"measurement": "IC50", "setting": "A549", "value": 21800, "unit": "nM"}
    ]},
    {"smiles": "COc1c(OC)c2c(c(CCN)c1SC)SSSSS2", "values": [
      {"measurement": "IC50", "setting": "[2]", "value": "> 25", "unit": "µg/mL"}
    ]},
    {"smiles": "C=C[C@@H](O)Cc1nsc(C2=CCCS[C@]23C(=O)Nc2ccccc23)n1", "values": [
      {"measurement": "IC50", "setting": "Human alphaherpesvirus 1", "value": 33300, "unit": "nM"},
      {"measurement": "IC50", "setting": "Influenza A virus", "value": 33300, "unit": "nM"}
    ]},
    {"smiles": "N=C(N)NCCCCCNc1noc(Cc2c[nH]c3cc(Br)ccc23)n1", "values": [
      {"measurement": "inhibition", "setting": "[3]", "value": 68, "unit": "%"},
      {"measurement": "inhibition", "setting": "[4]", "value": 103, "unit": "%"},
      {"measurement": "inhibition", "setting": "[5]", "value": 100, "unit": "%"},
      {"measurement": "inhibition", "setting": "[6]", "value": 50, "unit": "%"},
      {"measurement": "IC50", "setting": "C6", "value": 1500, "unit": "nM"},
      {"measurement": "IC50", "setting": "HeLa", "value": 1500, "unit": "nM"},
      {"measurement": "inhibition", "setting": "[7]", "value": 22, "unit": "%"},
      {"measurement": "IC50", "setting": "3T3-L1", "value": 140, "unit": "nM"},
      {"measurement": "inhibition", "setting": "[8]", "value": 101, "unit": "%"}
    ]},
    {"smiles": "COc1c(OC)c2c(c(CCN(C)C)c1SC)SSSSS2", "values": [
      {"measurement": "zone of inhibition at 50 µg/disc", "setting": "Mucor hiemalis", "value": "14.2 to 30", "unit": "mm"},
      {"measurement": "zone of inhibition at 50 µg/disc", "setting": "Ruegeria atlantica", "value": "14.2 to 30", "unit": "mm"},
      {"measurement": "zone of inhibition at 50 µg/disc", "setting": "Saccharomyces cerevisiae", "value": "14.2 to 30", "unit": "mm"},
      {"measurement": "zone of inhibition at 50 µg/disc", "setting": "Staphylococcus aureus", "value": "14.2 to 30", "unit": "mm"},
      {"measurement": "IC50", "setting": "V79", "value": 150, "unit": "nM"},
      {"measurement": "zone of inhibition at 50 µg/disc", "setting": "Escherichia coli", "value": "14.2 to 30", "unit": "mm"},
      {"measurement": "IC50", "setting": "[2]", "value": "> 25", "unit": "µg/mL"}
    ]},
    {"smiles": "CO[C@H]1C[C@H](O[C@H]2[C@@H](OC)C[C@H](O[C@H]3[C@H](O)C[C@H](O[C@H]4[C@@H](OC)C[C@H](O[C@@H]5[C@@H](C)O[C@@]6(C[C@H]5OC)OCO[C@@H]5C[C@H](O[C@@H](C)[C@@]7(O)CC[C@H]8[C@@H]9CC=C%10C[C@@H](O)CC[C@]%10(C)[C@H]9CC[C@@]87C)O[C@H](C)[C@H]5O6)O[C@@H]4C)O[C@@H]3C)O[C@@H]2C)O[C@H](C)[C@H]1OC(C)=O", "values": [
      {"measurement": "IC50", "setting": "T-cell", "value": "290 to 1970", "unit": "nM"}
    ]},
    {"smiles": "COc1cc(CCN(C)C)c2c(c1O)SSC(C)S2", "note": "(stereo unspecified)", "values": [
      {"measurement": "IC50", "setting": "L1210 [9]", "value": 700, "unit": "nM"},
      {"measurement": "IC50", "setting": "V79", "value": 140, "unit": "nM"}
    ]},
    {"smiles": "Oc1ccc(Cc2nsc(Cc3ccc(O)cc3)n2)cc1", "values": [
      {"measurement": "IC50", "setting": "HGC-27", "value": 172000, "unit": "nM"}
    ]},
    {"smiles": "CC[C@H](C)C1=C(O)[N@+]2([O-])Oc3ccc(-c4c(O)c(O)c(-c5ccc(O)cc5)c(OC(C)=O)c4OC(C)=O)cc3O[C@@]2([C@@H](C)CC)C(=O)N1OC", "values": [
      {"measurement": "IC50", "setting": "[10]", "value": 25000, "unit": "nM"}
    ]},
    {"smiles": "Nc1nsc(C(=O)c2ccc(O)cc2)n1", "values": [
      {"measurement": "IC50", "setting": "L5178Y", "value": 410, "unit": "nM"}
    ]},
    {"smiles": "COC1=C[C@@H](C)O[C@@H](O[C@H]2CC[C@@]3(C)C(=CC[C@@H]4[C@@H]3CC[C@@]3(C)[C@H]4CC[C@]3(O)[C@H](C)O[C@H]3C[C@H]4OCO[C@@]5(C[C@@H](OC)[C@H](O[C@H]6C[C@H](OC)[C@H](O[C@H]7C[C@@H](O)[C@H](O[C@H]8C[C@H](OC)[C@H](O[C@H]9C[C@H](O)[C@H](OC(C)=O)[C@@H](C)O9)[C@@H](C)O8)[C@@H](C)O7)[C@@H](C)O6)[C@@H](C)O5)O[C@@H]4[C@@H](C)O3)C2)C1=O", "values": [
      {"measurement": "IC50", "setting": "T-cell", "value": "290 to 1970", "unit": "nM"}
    ]},
    {"smiles": "COc1cc(CCN(C)C)c2sc3c(OC)c(OC)c(SC)c(CCN(C)C)c3ssc2c1O", "note": "[LISSOCLIBADIN 5]", "values": [
      {"measurement": "zone of inhibition at 50 µg/disc", "setting": "Staphylococcus aureus", "value": 15.8, "unit": "mm"},
      {"measurement": "zone of inhibition at 50 µg/disc", "setting": "Escherichia coli", "value": 11.6, "unit": "mm"}
    ]},
    {"smiles": "COc1cc(CCN(C)C)c2c(c1O)SSSSS2", "note": "[ISOLISSOCLINOTOXIN B]", "values": [
      {"measurement": "IC50", "setting": "L1210 [9]", "value": 640, "unit": "nM"},
      {"measurement": "IC50", "setting": "V79", "value": 250, "unit": "nM"}
    ]}
  ]
}
